# Laboratory results taken from patent publication US7964531B2, “3-phenoxy-4-pyridazinol derivatives and herbicidal composition containing the same” (Mitsui Chemicals Agro, Inc., priority 2001, dated 2011).
# Tests used:
# Format in all cases: in vivo
# Conditions in all cases: wettable powder applied 3 days after transplanting, judged after 25 days
# Cyperus serotinus = assay: Test Example 1: herbicidal effects, paddy-field pot test
# Procedure: (§1) A paddy soil was filled in 1/10,000 are pot, and seeds of barnyardgrass (Echinochloa oryzicola Vasing.), Scirpus joncoides and annual broad-leaved weeds (Lindernia spp., Rotala indica) which are awaken from dormancy were mixed at the surface layer of 1 cm. Also, tuber of Cyperus serotinus which is germinated was planted, and further seedlings of paddy-field rice at 2.2-leaf stage were transplanted, and they were grown under the flooded condition in a greenhouse. After 3 days from transplanting, a predetermined chemical dosage of the wettable powder prepared in accordance with Preparation example 1 was diluted in water, and the solution was applied to the pot and herbicidal effects and crop injury against transplanted paddy-field rice were judged after 25 days from the treatment. Also, 3-(2-allylphenoxy)-6-chloro-4-methoxypyridazine described in Chemical Pharmaceutical Bulletin, 1972, vol. 20, No. 10, pp. 2191-2203 was used as Comparative compound. Incidentally, herbicidal effects and crop injury against transplanted paddy-field rice were judged by the following judgment standard, and “-” in the table means no test was carried out.
# (§2) Judgment Standard • 0: Growth inhibition rate; 0 to 10% • 1: Growth inhibition rate; 11 to 30% • 2: Growth inhibition rate; 31 to 50% • 3: Growth inhibition rate; 51 to 70% • 4: Growth inhibition rate; 71 to 90% • 5: Growth inhibition rate; 91 to 100%.
# [1] = test system: barnyardgrass (Echinochloa oryzicola Vasing.); assay: as above
# Procedure: as §1, §2
# Scirpus joncoides = assay: as above
# Procedure: as §1, §2
# [2] = test system: annual broad-leaved weeds (Lindernia spp., Rotala indica); assay: as above
# Procedure: as §1, §2
# [3] = test system: transplanted paddy-field rice; assay: Test Example 1: crop injury against transplanted paddy-field rice
# Procedure: as §1, §2
SMILES,Herbicidal effects Cyperus serotinus (Cyperus serotinus; chemical dosage 12.5 g/a),Herbicidal effects Cyperus serotinus (Cyperus serotinus; chemical dosage 25 g/a),Herbicidal effects Barnyard grass ([1]; chemical dosage 12.5 g/a),Herbicidal effects Barnyard grass ([1]; chemical dosage 25 g/a),Herbicidal effects Scirpus joncoides (Scirpus joncoides; chemical dosage 12.5 g/a),Herbicidal effects Scirpus joncoides (Scirpus joncoides; chemical dosage 25 g/a),Herbicidal effects Broad leaf ([2]; chemical dosage 12.5 g/a),Herbicidal effects Broad leaf ([2]; chemical dosage 25 g/a),Crop injury against transplanted rice ([3]; chemical dosage 12.5 g/a),Crop injury against transplanted rice ([3]; chemical dosage 25 g/a),Herbicidal effects Cyperus serotinus (Cyperus serotinus; chemical dosage 10 g/a),Herbicidal effects Cyperus serotinus (Cyperus serotinus; chemical dosage 20 g/a),Herbicidal effects Barnyard grass ([1]; chemical dosage 10 g/a),Herbicidal effects Barnyard grass ([1]; chemical dosage 20 g/a),Herbicidal effects Scirpus joncoides (Scirpus joncoides; chemical dosage 10 g/a),Herbicidal effects Scirpus joncoides (Scirpus joncoides; chemical dosage 20 g/a),Herbicidal effects Broad leaf ([2]; chemical dosage 10 g/a),Herbicidal effects Broad leaf ([2]; chemical dosage 20 g/a),Crop injury against transplanted rice ([3]; chemical dosage 10 g/a),Crop injury against transplanted rice ([3]; chemical dosage 20 g/a)
Oc1cc(Cl)nnc1Oc1ccccc1C1CCCC1 [Example 88],5 (Growth inhibition rate; 91 to 100%),5 (Growth inhibition rate; 91 to 100%),0 (Growth inhibition rate; 0 to 10%),0 (Growth inhibition rate; 0 to 10%),4 (Growth inhibition rate; 71 to 90%),5 (Growth inhibition rate; 91 to 100%),4 (Growth inhibition rate; 71 to 90%),5 (Growth inhibition rate; 91 to 100%),0 (Growth inhibition rate; 0 to 10%),0 (Growth inhibition rate; 0 to 10%),–,–,–,–,–,–,–,–,–,–
COc1ccccc1Oc1nnc(Cl)cc1O [Example 121],5 (Growth inhibition rate; 91 to 100%),5 (Growth inhibition rate; 91 to 100%),2 (Growth inhibition rate; 31 to 50%),3 (Growth inhibition rate; 51 to 70%),3 (Growth inhibition rate; 51 to 70%),4 (Growth inhibition rate; 71 to 90%),5 (Growth inhibition rate; 91 to 100%),5 (Growth inhibition rate; 91 to 100%),0 (Growth inhibition rate; 0 to 10%),0 (Growth inhibition rate; 0 to 10%),–,–,–,–,–,–,–,–,–,–
CCOc1ccccc1Oc1nnc(Cl)cc1O [Example 122],–,–,–,–,–,–,–,–,–,–,5 (Growth inhibition rate; 91 to 100%),5 (Growth inhibition rate; 91 to 100%),0 (Growth inhibition rate; 0 to 10%),0 (Growth inhibition rate; 0 to 10%),4 (Growth inhibition rate; 71 to 90%),5 (Growth inhibition rate; 91 to 100%),5 (Growth inhibition rate; 91 to 100%),5 (Growth inhibition rate; 91 to 100%),0 (Growth inhibition rate; 0 to 10%),0 (Growth inhibition rate; 0 to 10%)
CC(C)Oc1ccccc1Oc1nnc(Cl)cc1O [Example 123],–,–,–,–,–,–,–,–,–,–,4 (Growth inhibition rate; 71 to 90%),5 (Growth inhibition rate; 91 to 100%),0 (Growth inhibition rate; 0 to 10%),1 (Growth inhibition rate; 11 to 30%),3 (Growth inhibition rate; 51 to 70%),4 (Growth inhibition rate; 71 to 90%),5 (Growth inhibition rate; 91 to 100%),5 (Growth inhibition rate; 91 to 100%),0 (Growth inhibition rate; 0 to 10%),0 (Growth inhibition rate; 0 to 10%)
Oc1cc(Cl)nnc1Oc1ccccc1OC(F)(F)F [Example 125],–,–,–,–,–,–,–,–,–,–,4 (Growth inhibition rate; 71 to 90%),5 (Growth inhibition rate; 91 to 100%),1 (Growth inhibition rate; 11 to 30%),2 (Growth inhibition rate; 31 to 50%),3 (Growth inhibition rate; 51 to 70%),4 (Growth inhibition rate; 71 to 90%),5 (Growth inhibition rate; 91 to 100%),5 (Growth inhibition rate; 91 to 100%),0 (Growth inhibition rate; 0 to 10%),0 (Growth inhibition rate; 0 to 10%)
CSc1ccccc1Oc1nnc(Cl)cc1O [Example 129],4 (Growth inhibition rate; 71 to 90%),5 (Growth inhibition rate; 91 to 100%),1 (Growth inhibition rate; 11 to 30%),2 (Growth inhibition rate; 31 to 50%),3 (Growth inhibition rate; 51 to 70%),4 (Growth inhibition rate; 71 to 90%),5 (Growth inhibition rate; 91 to 100%),5 (Growth inhibition rate; 91 to 100%),0 (Growth inhibition rate; 0 to 10%),0 (Growth inhibition rate; 0 to 10%),–,–,–,–,–,–,–,–,–,–
Oc1cc(Cl)nnc1Oc1cccc(F)c1F [Example 154],–,–,–,–,–,–,–,–,–,–,5 (Growth inhibition rate; 91 to 100%),5 (Growth inhibition rate; 91 to 100%),1 (Growth inhibition rate; 11 to 30%),2 (Growth inhibition rate; 31 to 50%),3 (Growth inhibition rate; 51 to 70%),5 (Growth inhibition rate; 91 to 100%),5 (Growth inhibition rate; 91 to 100%),5 (Growth inhibition rate; 91 to 100%),0 (Growth inhibition rate; 0 to 10%),0 (Growth inhibition rate; 0 to 10%)
Cc1cccc(Oc2nnc(Cl)cc2O)c1C1CC1 [Example 166],–,–,–,–,–,–,–,–,–,–,5 (Growth inhibition rate; 91 to 100%),5 (Growth inhibition rate; 91 to 100%),0 (Growth inhibition rate; 0 to 10%),1 (Growth inhibition rate; 11 to 30%),5 (Growth inhibition rate; 91 to 100%),5 (Growth inhibition rate; 91 to 100%),5 (Growth inhibition rate; 91 to 100%),5 (Growth inhibition rate; 91 to 100%),0 (Growth inhibition rate; 0 to 10%),0 (Growth inhibition rate; 0 to 10%)
CC1CCc2cccc(Oc3nnc(Cl)cc3O)c21 (stereo not drawn) [Example 172],–,–,–,–,–,–,–,–,–,–,4 (Growth inhibition rate; 71 to 90%),5 (Growth inhibition rate; 91 to 100%),5 (Growth inhibition rate; 91 to 100%),5 (Growth inhibition rate; 91 to 100%),5 (Growth inhibition rate; 91 to 100%),5 (Growth inhibition rate; 91 to 100%),5 (Growth inhibition rate; 91 to 100%),5 (Growth inhibition rate; 91 to 100%),0 (Growth inhibition rate; 0 to 10%),0 (Growth inhibition rate; 0 to 10%)
Oc1cc(Cl)nnc1Oc1cccc2c1CCCC2 [Example 179],–,–,–,–,–,–,–,–,–,–,5 (Growth inhibition rate; 91 to 100%),5 (Growth inhibition rate; 91 to 100%),0 (Growth inhibition rate; 0 to 10%),1 (Growth inhibition rate; 11 to 30%),3 (Growth inhibition rate; 51 to 70%),4 (Growth inhibition rate; 71 to 90%),4 (Growth inhibition rate; 71 to 90%),4 (Growth inhibition rate; 71 to 90%),0 (Growth inhibition rate; 0 to 10%),0 (Growth inhibition rate; 0 to 10%)
Oc1cc(Cl)nnc1Oc1cccc2ccccc12 [Example 180],5 (Growth inhibition rate; 91 to 100%),5 (Growth inhibition rate; 91 to 100%),0 (Growth inhibition rate; 0 to 10%),0 (Growth inhibition rate; 0 to 10%),2 (Growth inhibition rate; 31 to 50%),3 (Growth inhibition rate; 51 to 70%),5 (Growth inhibition rate; 91 to 100%),5 (Growth inhibition rate; 91 to 100%),0 (Growth inhibition rate; 0 to 10%),0 (Growth inhibition rate; 0 to 10%),–,–,–,–,–,–,–,–,–,–
Oc1cc(Cl)nnc1Oc1cccc2c1CCO2 [Example 181],–,–,–,–,–,–,–,–,–,–,4 (Growth inhibition rate; 71 to 90%),5 (Growth inhibition rate; 91 to 100%),1 (Growth inhibition rate; 11 to 30%),2 (Growth inhibition rate; 31 to 50%),3 (Growth inhibition rate; 51 to 70%),4 (Growth inhibition rate; 71 to 90%),5 (Growth inhibition rate; 91 to 100%),5 (Growth inhibition rate; 91 to 100%),0 (Growth inhibition rate; 0 to 10%),0 (Growth inhibition rate; 0 to 10%)
